Source: ChEMBL document CHEMBL3046861, “QSAR STUDIES ON ADENOSINE KINASE INHIBITORS” (Med Chem Res, 2004)

Biological target: Adenosine kinase (Homo sapiens) (UniProt P55263)
Sequence (P55263 2-362 limits assumed): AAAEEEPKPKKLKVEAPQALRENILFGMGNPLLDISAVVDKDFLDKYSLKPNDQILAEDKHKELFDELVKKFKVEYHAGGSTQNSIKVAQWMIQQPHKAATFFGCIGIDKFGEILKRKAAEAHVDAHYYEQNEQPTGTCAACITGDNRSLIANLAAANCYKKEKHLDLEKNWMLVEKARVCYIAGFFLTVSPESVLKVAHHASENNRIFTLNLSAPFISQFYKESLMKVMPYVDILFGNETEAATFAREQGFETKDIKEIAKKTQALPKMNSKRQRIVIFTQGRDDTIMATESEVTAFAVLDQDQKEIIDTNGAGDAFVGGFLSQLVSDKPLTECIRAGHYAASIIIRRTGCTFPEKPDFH
Description: Inhibition of adenosine kinase (unknown origin)

logIC50 | SMILES
-4 | NC[C@H]1O[C@@H](n2cc(I)c3c(Cl)ncnc32)[C@H](O)[C@@H]1O
0.0792 | CNc1ncnc2c1c(I)cn2[C@@H]1O[C@H](C)[C@@H](O)[C@H]1O
-1.22 | CC[C@H]1O[C@@H](n2cc(I)c3c(N)ncnc32)[C@H](O)[C@@H]1O
-1.46 | [N-]=[N+]=NC[C@H]1O[C@@H](n2cc(I)c3c(N)ncnc32)[C@H](O)[C@@H]1O
-3.22 | NC[C@H]1O[C@@H](n2cc(I)c3c(N)ncnc32)[C@H](O)[C@@H]1O
-2.05 | [N-]=[N+]=NC[C@H]1O[C@@H](n2cc(I)c3c(Cl)ncnc32)[C@H](O)[C@@H]1O
-1 | C=C[C@H]1O[C@@H](n2cc(I)c3c(N)ncnc32)[C@H](O)[C@@H]1O
-0.272 | Cc1cn([C@@H]2O[C@H](C)[C@@H](O)[C@H]2O)c2ncnc(Cl)c12
0.13 | CSc1cn([C@@H]2O[C@H](C)[C@@H](O)[C@H]2O)c2ncnc(N)c12
-2.52 | C[C@H]1O[C@@H](n2cc(I)c3c(Cl)ncnc32)[C@H](O)[C@@H]1O
-1.16 | CSc1cn([C@@H]2O[C@H](C)[C@@H](O)[C@H]2O)c2ncnc(Cl)c12
-0.301 | Nc1ncnc2c1c(Br)cn2[C@@H]1OC[C@@H](O)[C@H]1O
-3.7 | NC[C@H]1O[C@@H](n2cc(Br)c3c(N)ncnc32)[C@H](O)[C@@H]1O
-1.62 | OC[C@H]1O[C@@H](n2cc(I)c3c(Cl)ncnc32)[C@H](O)[C@@H]1O
-1.3 | C[C@H]1O[C@@H](n2cc(Br)c3c(Cl)ncnc32)[C@H](O)[C@@H]1O
-1 | [N-]=[N+]=NC[C@H]1O[C@@H](n2cc(Br)c3c(Cl)ncnc32)[C@H](O)[C@@H]1O
0.813 | C[C@H]1O[C@@H](n2cc(I)c3c(S)ncnc32)[C@H](O)[C@@H]1O
-1.35 | CSc1ncnc2c1c(I)cn2[C@@H]1O[C@H](C)[C@@H](O)[C@H]1O
0.0792 | COC[C@H]1O[C@@H](n2cc(I)c3c(N)ncnc32)[C@H](O)[C@@H]1O
-1.2 | [N-]=[N+]=NC[C@H]1O[C@@H](n2cc(Br)c3c(N)ncnc32)[C@H](O)[C@@H]1O

SMILES | logIC50
C[C@H]1O[C@@H](n2cc(C#N)c3c(N)ncnc32)[C@H](O)[C@@H]1O | -0.509
Nc1ncnc2c1c(Br)cn2[C@@H]1O[C@H](CO)[C@@H](O)[C@H]1O | -0.921
Nc1ncnc2c1c(Cl)cn2[C@@H]1O[C@H](CO)[C@@H](O)[C@H]1O | -0.678
